Results: patent EP3009138B1, “MANGIFERA EXTRACT FOR THE MANAGEMENT OF OBESITY AND/OR WEIGHT” (Kodimule, Shyam Prasad, priority 2014, dated 2016)
Marks after values point to notes of the source that are not given here.

Tests used:
high fat diet fed rats = assay: Anti-obesity activity in high fat diet fed rats; format: in vivo, Male Wistar rats; settings: male rats, Orlistat 30 mg/kg (Group III)
Experimental: Objective: The objective was to investigate the effect of the HC against high fat diet fed rats. Animals: Male Wistar rats (160 to 200 g); No of animals: 36; Housing: 3/ cage, 12 hrs light/dark cycle; Temperature: 25±2°c; Model & Composition of the Diet: High fat diet in rats: 25% Lard, 5% Soyabean oil; 5% starch; 65% Normal commercial available rat feed; Groups: Male Wistar rats were divided into six groups with six animals in each group [table]

[1] = biological target: T1, Porcine Pancreatic Lipase (Sus scrofa, UniProt P00591); assay: Anti-lipase assay (triolein emulsion); format: biochemical; settings: Sample Concentration: 1.2 mg/ml; 37 °C, 30 min
T1 sequence (P00591 1-450): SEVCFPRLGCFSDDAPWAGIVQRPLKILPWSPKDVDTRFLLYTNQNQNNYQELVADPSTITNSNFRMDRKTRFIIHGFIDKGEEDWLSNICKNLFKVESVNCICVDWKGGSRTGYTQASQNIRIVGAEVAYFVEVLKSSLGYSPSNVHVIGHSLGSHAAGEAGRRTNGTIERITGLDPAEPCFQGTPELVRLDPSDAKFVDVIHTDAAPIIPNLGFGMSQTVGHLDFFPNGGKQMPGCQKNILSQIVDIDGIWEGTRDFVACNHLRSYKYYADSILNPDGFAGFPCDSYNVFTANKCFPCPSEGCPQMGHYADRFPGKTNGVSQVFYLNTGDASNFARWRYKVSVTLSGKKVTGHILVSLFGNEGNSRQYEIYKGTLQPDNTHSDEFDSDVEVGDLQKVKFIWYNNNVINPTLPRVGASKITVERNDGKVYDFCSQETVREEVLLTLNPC
Experimental: A suspension containing 1% (V/V) of triolein and 1% (V/V) of tween 40 in 0.1M phosphate buffer (pH-8) was prepared and emulsified. The assay was initiated by adding 800µl of the Triolein emulsion to 200µl of Porcine Pancreatic Lipase (0.5 g Pancreatic Lipase in 15 ml of 0.1 M phosphate buffer at pH-8) and 200 µl of the HC extract (100 µg/ml concentration). The resultant mixture was mixed and the absorbance was measured immediately at 450 nm (T^0). The mixtures were then incubated at 37 °C for 30 min and the absorption was measured at 450 nm (T^30). Inhibition % = {A(cont)−A(test) × 100; A(cont)} [formula] where: • A(cont) - is the absorbance of the control (TC^0-TC^30) • A(test) - is the absorbance of the sample test /standard (T^0-T^30) (the HC, mangiferin and quercetin)

[2] = Hydrogen peroxide (H2O2) scavenging activity; format: biochemical
Experimental: Hydrogen peroxide scavenging activity of the HC was estimated in this study where initially, HC solutions were prepared at different concentrations in distilled water and the resultant solutions were mixed in 0.6 ml of 40 mM H2O2 solution prepared in phosphate buffer (0.1 M pH 7.4) and incubated for 10 min. The absorbance was measured at 230 nm against a blank solution containing H2O2. Similar procedure was repeated for HC, Mangiferin and Quercetin. The amount of hydrogen peroxide radical inhibited was calculated using the following equation. The result is expressed as % H2O2 radical scavenging activity. H2 O2 radical scavenging activity = {(Abs control−Abs sample) × 100; (Abs control)} [formula] where: • Abs control - Absorbance of H2O2 radical • Abs sample - Absorbance of sample extract/ standard (the HC, mangiferin and quercetin)

[3] = Superoxide Dismutase (SOD) activity / superoxide anion scavenging (NBT/NADH/PMS); format: biochemical; settings: 100 µg/ml (method)
Experimental: The superoxide anion scavenging activity of the HC was measured in this test. 1 ml (156 µM) of Nitro blue tetrazolium (NBT), 1 ml (468 µM) of nicotinamide adenine dinucleotide (NADH) and 3 ml of the HC at 100 µg/ml concentration were admixed in phosphate buffer (pH 7.4). The reaction was started by adding 100 µl of phenazine methosulfate (PMS) (0.18mg/ml) and the mixture was incubated at 25°C for 5 min followed by measuring the absorbance at 560 nm. Similar solutions were prepared for quercetin and mangiferin and the percentage of inhibition was calculated by using the formula provided herein-below; the result was expressed as % superoxide dismutase scavenging activity. % superoxide dismutase inhibition = {(Abs control−Abs sample) × 100; Abs control} [formula] where: • Abs control - Absorbance of control • Abs sample - Absorbance of sample extract/ standard (the HC, mangiferin and quercetin)

[4] = Lipid peroxidation inhibitory assay (TBARS); format: biochemical; settings: Sample Concentration: 100-500µ g/ml
Experimental: A modified Thiobarbituric acid reactive species (TBARS) assay (Ohkowa et al., 1979) is used to measure lipid peroxidation formed using egg yolk homogenate as lipid rich media (Ruberto et al., 2000).
Take 0.5ml of egg homogenate (10%in distilled water) and 0.1 ml of test sample in the concentration range 100-500µ g/ml in a test tube and volume made up to 1 ml by adding distilled water. Finally add 0.05 ml ferrous sulphate (0.07M) to the above mixture and incubate for 30 min to induce the lipid peroxidation. Thereafter add 1.5 ml of 20% acetic acid (pH 3.5) and 1.5 ml of (0.8%in 1.1% SDS) TBA and 0.05 ml (20%) TCA then heated in boiling water bath for 60 min. After cooling 5 ml of butanol will be added to all the test tubes and centrifuged at 3000 rpm for 10 min. Measure the absorbance of the organic upper layer at 532 nm. The percentage inhibition of lipid peroxidation calculated from the formula, % Inhibition = ((Abcontrol−Abtest sample)*100)/(Abcontrol) [formula] where: • Ab (cont) - is the absorbance of the control • Ab (test sample) - is the absorbance of the test sample /standard Table 12 Lipid peroxidation inhibitory assay test results

Compound: CCCCCCCCCCC[C@@H](C[C@@H]1OC(=O)[C@H]1CCCCCC)OC(=O)[C@H](CC(C)C)NC=O [Orlistat]
- Initial weight (high fat diet fed rats; baseline, in g (unit assumed)): 182.00±0.96
- Atherogenic Index (high fat diet fed rats): 1.39±0.15***^b
- Average food intake (high fat diet fed rats): 13.45±0.28^nsb g/rat
- BAT (high fat diet fed rats): 0.28± 0.01^nsb
- Difference in body weight gain (high fat diet fed rats): 79.82±2.58***^b
- Epididymal fat pad Left (high fat diet fed rats): 0.52± 0.03^nsb
- Epididymal fat pad Right (high fat diet fed rats): 0.55± 0.02^nsb
- Fecal fatty acid estimation (high fat diet fed rats): 4.1±0.26*^b
- Insulin (high fat diet fed rats): 0.15±0.005^nsb mU/L
- Liver (organ weight) (high fat diet fed rats): 2.8±0.08 ***^b
- Liver triglycerides (high fat diet fed rats): 87.77±2.28*^b
- Mesenteric fat (high fat diet fed rats): 1.02±0.07 ^nsb
- Perirenal fat pad tissue Left (high fat diet fed rats): 0.77± 0.08*^b
- Perirenal fat pad tissue Right (high fat diet fed rats): 0.77±0.08*^b
- serum Glucose (high fat diet fed rats): 92.00±2.89**^b mg/dL
- Final weight (high fat diet fed rats; in g (unit assumed)): 261.80±2.53
- HDL-c (high fat diet fed rats; serum): 21.72±1.22**^b mg/dL
- LDL-c (high fat diet fed rats; serum): 13.20±1.71**^b mg/dL
- Total cholesterol (high fat diet fed rats; serum): 50.91±0.62***^b mg/dL
- Triglyceride (high fat diet fed rats; serum): 79.96±1.13***^b mg/dL
- inhibition at 1200 µg/mL [1]: 75.3%

Compound: O=c1c2cc(O)c(O)cc2oc2cc(O)c([C@@H]3O[C@H](CO)[C@@H](O)[C@H](O)[C@H]3O)c(O)c12 [Mangiferin 98%, Mangiferin]
- inhibition at 1200 µg/mL [1]: 41.8%

Compound: O=c1c(O)c(-c2ccc(O)c(O)c2)oc2cc(O)cc(O)c12 [Quercetin (Standard), Quercetin]
- H2O2 scavenging activity ([2]; 10 µg/ml): 5.6%
- H2O2 scavenging activity ([2]; 20 µg/ml): 14.55%
- H2O2 scavenging activity ([2]; 30 µg/ml): 18.86%
- H2O2 scavenging activity ([2]; 40 µg/ml): 33.96%
- SOD activity % Inhibition [3]: 51.03%
- Lipid peroxidation inhibitory assay % inhibition [4]: 53.44%
